{"source": "patent US20050287565A1", "about": "“Methods, compositions and compound assays for inhibiting amyloid-beta protein production” (priority 2004, published 2005)", "type_in_all_cases": "cell-based", "key": {"[1]": {"test_system": "ADRA1A", "assay": "ADRA1A agonist and antagonist validation in Hek293 APPwt cells, amyloid beta ELISA", "text": "(§1) To identify novel drug targets that change the APP processing, stable cell lines over expressing APP are made by transfecting Hek293 or SH-SY5Y cells with APP770 wt cDNA cloned into pcDNA3.1, followed by selection with G418 for 3 weeks. At this time point colonies are picked and stable clones are expanded and tested for their secreted amyloid-beta peptide levels. The cell lines designated as “Hek293 APPwt” and “SH-SY5Y APPwt” are used in the assays.\nHek293 APPwt Assay: Cells seeded in collagen-coated plates at a cell density of 15000 cells/well (384 well plate) in DMEM (10% FBS), are infected 24 h later with 1 μl or 0.2 μl of adenovirus (corresponding to an average multiplicity of infection (MOI) of 120 and 24 respectively). The following day, the virus is washed away and DMEM (25 mM Hepes; 10% FBS) is added to the cells. Amyloid-beta peptides are allowed to accumulate during 24 h.\n(§2) ELISA: The ELISA plate is prepared by coating with a capture antibody (JRF/cAbeta42/26) (the antibody recognizes a specific epitope on the C-terminus of Abeta 1-42; obtained from M Mercken, Johnson and Johnson Pharmaceutical Research and Development, B-2340 Beerse, Belgium) overnight in buffer 42 (Table 2) at a concentration of 2.5 μg/ml. The excess capture antibody is washed away the next morning with PBS and the ELISA plate is then blocked overnight with casein buffer (see Table 2) at 4° C. Upon removal of the blocking buffer, 30 μl of the sample is transferred to the ELISA plate and incubated overnight at 4° C. After extensive washing with PBS-Tween20 and PBS, 30 μl of the horseradish peroxidase (HRP) labeled detection antibody (Peroxidase Labeling Kit, Roche), JRF/AbetaN/25-HRP (obtained from M Mercken, Johnson and Johnson Pharmaceutical Research and Development, B-2340 Beerse, Belgium) is diluted 1/5000 in buffer C (see Table 2) and added to the wells for another 2 h. Following the removal of excess detection antibody by a wash with PBS-Tween20 and PBS, HRP activity is detected via addition of luminol substrate (Roche), which is converted into a chemiluminescent signal by the HRP enzyme.\nIn addition, for the SH-SY5Y APPwt assay, the samples are also analyzed in an amyloid beta x-42 ELISA. This ELISA detects all amyloid beta peptide species ending at position 42, comprising 1-42, 11-42 and 17-42 (p3), which originate respectively from BACE activity at position 1 and 11, and alpha secretase activity at position 17. Thus, in addition to the amyloidogenic pathway, the non-amyloidogenic pathway is also monitored. The protocol for the Abeta x-42 ELISA is identical to the protocol for the Abeta 1-42 ELISA, except that a HRP labeled 4G8 antibody (Signet; the antibody recognizes a specific epitope in the center of the Abeta peptides) is used as detection antibody. […]"}, "[2]": {"test_system": "ADRA1A", "assay": "ADRA1A agonist and antagonist validation in SH-SY5Y APPwt cells, amyloid beta ELISA", "description": "as §1\nSH-SY5Y APPwt Assay: Cells are seeded in collagen-coated plates at a cell density of 15000 cells/well (384 well plate) in Dulbecco's MEM with Glutamax I+15% FBS HI+non-essential amino acids+Geneticin 500 μg/ml. The cells are differentiated towards the neuronal phenotype by adding 9-cis retinoic acid to a final concentration of 1 μM on day 1, day 3, day 5 and day 8. On day 9, the cells are infected with 1 μl of adenovirus (corresponding to an average multiplicity of infection (MOI) of 120 respectively). The following day, the virus is washed away and DMEM 25 mM Hepes 10% FBS is added to the cells. Amyloid beta peptides are allowed to accumulate for 24 h.\nas §2\nIn addition, for the SH-SY5Y APPwt assay, the samples are also analyzed in an amyloid beta x-42 ELISA. This ELISA detects all amyloid beta peptide species ending at position 42, comprising 1-42, 11-42 and 17-42 (p3), which originate respectively from BACE activity at position 1 and 11, and alpha secretase activity at position 17. Thus, in addition to the amyloidogenic pathway, the non-amyloidogenic pathway is also monitored. […]"}, "[3]": {"target": "TACR1 (Homo sapiens, UniProt P25103)", "sequence (P25103 whole entry)": "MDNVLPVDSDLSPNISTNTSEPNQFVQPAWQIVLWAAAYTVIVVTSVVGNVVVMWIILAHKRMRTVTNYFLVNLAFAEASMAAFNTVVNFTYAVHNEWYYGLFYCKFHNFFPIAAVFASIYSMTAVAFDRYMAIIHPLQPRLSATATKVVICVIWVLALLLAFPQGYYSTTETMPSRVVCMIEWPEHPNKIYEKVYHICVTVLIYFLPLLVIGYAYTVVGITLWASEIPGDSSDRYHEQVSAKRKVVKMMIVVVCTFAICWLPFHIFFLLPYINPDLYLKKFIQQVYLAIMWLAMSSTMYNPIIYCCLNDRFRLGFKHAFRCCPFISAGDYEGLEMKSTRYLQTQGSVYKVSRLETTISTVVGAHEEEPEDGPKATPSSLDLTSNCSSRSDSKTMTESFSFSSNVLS", "assay": "TACR1 agonist and antagonist validation in Hek293 APPwt cells, amyloid beta ELISA", "details": "Hek293 APPwt cells infected with Ad5/TACR1_v1", "protocol": "ELISA: The ELISA plate is prepared by coating with a capture antibody (JRF/cAbeta42/26) (the antibody recognizes a specific epitope on the C-terminus of Abeta 1-42; obtained from M Mercken, Johnson and Johnson Pharmaceutical Research and Development, B-2340 Beerse, Belgium) overnight in buffer 42 (Table 2) at a concentration of 2.5 μg/ml. The excess capture antibody is washed away the next morning with PBS and the ELISA plate is then blocked overnight with casein buffer (see Table 2) at 4° C. Upon removal of the blocking buffer, 30 μl of the sample is transferred to the ELISA plate and incubated overnight at 4° C. […]\nIn addition, for the SH-SY5Y APPwt assay, the samples are also analyzed in an amyloid beta x-42 ELISA. […] Thus, in addition to the amyloidogenic pathway, the non-amyloidogenic pathway is also monitored. […]"}, "[4]": {"details": "Hek293 APPwt cells infected with Ad5/ADRA1A_v1, increasing amounts of agonist, 24 h, concentration dependent"}, "[5]": {"details": "SH-SY5Y APPwt cells infected with Ad5/ADRA1A_v1, increasing amounts of agonist, 24 h, concentration dependent"}}}
{"smiles": "Br.CS(=O)(=O)Nc1c(O)ccc2c1CCCC2C1=NCCN1", "note": "(stereo not shown) [A61603]", "values": [{"measurement": "amount of amyloid beta 1-42 secreted in the medium", "setting": "[1]; [4]", "value": "decreased"}, {"measurement": "amount of amyloid beta x-42 secreted in the medium", "setting": "[1]; [4]", "value": "increased"}, {"measurement": "amount of amyloid beta 1-42 secreted in the medium", "setting": "[2]; [5]", "value": "increased"}, {"measurement": "amount of amyloid beta x-42 secreted in the medium", "setting": "[2]; [5]", "value": "increased"}]}
{"smiles": "Cl.FC(F)(F)c1cc(CO[C@H]2CCCN[C@H]2c2ccccc2)cc(C(F)(F)F)c1", "note": "[L-733,060 hydrochloride]", "values": [{"measurement": "observed Substance P EC50 values with increasing concentration of the antagonist", "setting": "[3]; amyloid beta x-42 ELISA, 0.1, 1 and 10 μM antagonist", "value": "increased"}, {"measurement": "amount of amyloid beta x-42 secreted in the medium", "setting": "[3]; substance P plus fixed 0.1, 1 and 10 μM antagonist, 24 h, concentration dependent", "value": "reduces"}]}
{"smiles": "CC(C)(Cc1c[nH]c2ccc(Cl)cc12)NCCOc1ccccc1OCC1CC1.Cl", "note": "[RS-17053 hydrochloride]", "values": [{"measurement": "amount of amyloid beta x-42 secreted in the medium", "setting": "[1]; Hek293 APPwt cells infected with Ad5/ADRA1A_v1, A61603 plus fixed 0.1 and 1 μM antagonist, 24 h, concentration dependent", "value": "reduced"}, {"measurement": "observed EC50 values (agonist A61603) with increasing concentration of the antagonist", "setting": "[1]; Hek293 APPwt cells, amyloid beta x-42 ELISA, 0.1 and 1 μM antagonist", "value": "increased"}, {"measurement": "amount of amyloid beta 1-42 secreted in the medium", "setting": "[2]; SH-SY5Y APPwt cells infected with Ad5/ADRA1A_v1, A61603 plus fixed 0.1 and 1 μM antagonist, 24 h, concentration dependent", "value": "reduced"}, {"measurement": "observed EC50 values (agonist A61603) with increasing concentration of the antagonist", "setting": "[2]; SH-SY5Y APPwt cells, amyloid beta 1-42 ELISA, 0.1 and 1 μM antagonist", "value": "increased"}]}
